Data set [1] is described as follows: Spectrofluorimetric quantification of emission in hydroalcoholic standard solutions. It is filed as physicochemical. From the text: (§1) For the in vitro validation of the Sequential Photonic Transfer (SPT) process, different molecules belonging to the groups of plant-derived compounds previously identified as potential targets have been selected. In particular, the selected molecules are morin and quercetin (flavonoids), cannabinol (CBN), cannabidiol (CBD), and cannabichromene (CBC) (cannabinoids), and chlorophyll A, which are fully representative examples of each target compound group. […] Flavonoids typically have absorption peaks around 260 and 380 nm, while cannabinoids have absorption peaks between 230 and 300 nm (FIG. 3A). […] For these compounds, their emission capacity at 460 nm (blue light) when excited by 280 and 320 nm light (UVB/A) and their emission capacity at 625 nm (red light) when excited by 460 nm light have been evaluated using spectrofluorimetry.
(§2) FIG. 3. […] Spectrofluorimetric quantification in hydroalcoholic standard solutions of emission at 460 nm (blue region of the electromagnetic spectrum) of different compounds after excitation at 280 or 320 nm (UVB/A) (C) and of emission at 625 nm (red region of the electromagnetic spectrum) after excitation at 460 nm (D) (Mn: Morin; Qc: Quercetin; CBD: cannabidiol; CBN: cannabinol; CBC: cannabichromene; Cl: chlorophyll A).

The nature of data set [2]: Continuous absorption spectra of flavonoids, cannabinoids and chlorophylls. It is filed as physicochemical. Conditions: continuous absorption spectrum, FIG. 3A/3B.
Description: as §1, §2

For the next data set, the system named is primary fibroblasts. Put plainly: Summary of examples: UVB radiation of primary fibroblasts. It is filed as cell-based. Conditions: summary statement on the examples.
Data set [3] is described as follows: In vitro ROS production by colorimetric Nitro Blue Tetrazolium (NBT) oxidation in hydroalcoholic solution. The note with it: excited with UV light (310 nm), FIG. 4. From the text: NBT is a specific molecular sensor for superoxide anion production, which is the first type of ROS produced during the reduction of molecular oxygen to generate water. In the presence of superoxide anion, NBT, a colorless molecule in its reduced state, oxidizes to form a chromophore with an absorption peak at 540 nm. The degree of oxidation, and therefore the absorbance at 540 nm, is directly proportional to ROS production. […] However, the combination of flavonoids/cannabinoids, chlorophyll A, and PpIX excited with UV light (310 nm) induces a potent and significant ROS production equivalent to that obtained by exciting PpIX with red light (FIG. 4).
FIG. 4. Quantification of in vitro ROS production measured as absorbance at 540 nm of Nitro Blue Tetrazolium (NBT) compound oxidized by […] production in hydroalcoholic solutions of different compound combinations under basal conditions or excited with UV (310 nm) or red (635 nm) light. Results are expressed as mean+/−standard deviation of three independent experiments. *, […]; ***, P≤0.01 (PpIX: Protoporphyrin IX; Mn: Morin; CBD: cannabidiol; Cl: chlorophyll A).

For the molecule `C=Cc1c(C)c2cc3nc(c4c5[n-]c(cc6nc(cc1[n-]2)C(C)=C6CC)c(C)c5C(=O)[C@@H]4C(=O)OC)[C@@H](CCC(=O)OC/C=C(\C)CCC[C@H](C)CCC[C@H](C)CCCC(C)C)[C@@H]3C.[Mg+2]` [chlorophyll A], the “emission at 460 nm (blue light)” value in data set [1] (excited by 280 and 320 nm light (UVB/A), FIG. 3C) was “no emission of blue light”. Also, in data set [1] (excited by 460 nm light (blue), FIG. 3D), the “emission at 625 nm (red light)” value is reported as “strong emission of red light”. Besides, the absorption peaks result in data set [2] is reported as “around 450 nm”. In addition, in the data set on primary fibroblasts, the “protection of cells from UVB radiation” value is recorded as “neither capable of protecting against UVB radiation”; the “stimulation of proliferation and extracellular matrix protein synthesis” value is “nor stimulating cells in any way”. Besides, the “ROS production (NBT oxidation, absorbance at 540 nm)” value in data set [3] is listed as “unable to induce significant NBT oxidation”.
As to `C=Cc1c(C)c2cc3nc(c4c5[n-]c(cc6nc(cc1[n-]2)C(C=O)=C6CC)c(C)c5C(=O)[C@@H]4C(=O)OC)[C@@H](CCC(=O)OC/C=C(\C)CCC[C@H](C)CCC[C@H](C)CCCC(C)C)[C@@H]3C.[Mg+2]` [chlorophyll B], the absorption peaks result in data set [2] is on record as “around 450 nm”.

The record behind these values is US20250288509A1, “Composition for Promoting Photoprotection and Cutaneous Regeneration through Sequential Photonic Transfer (SPT)” (priority 2022, published 2025).
